# Active and inactive are the calls of the source. The calls are words filed in the database; no cut-off is given here.
# How the values were obtained:
# BT-549 [1] = test: Cell cycle arrest in human BT549 cells assessed as accumulation of cells at G1 phase at 2.5 uM after 24 hrs by propidium iodide staining-based flow cytometric analysis (reference value: 55.93%); type: functional
# MCF7 = test: Cytotoxicity against human MCF7 cells after 72 hrs by SRB assay; type: functional, cell-based; settings: MCF7, 72 h
# BT-549 [2] = test: Cell cycle arrest in human BT549 cells assessed as accumulation of cells at S phase at 5 uM after 24 hrs by propidium iodide staining-based flow cytometric analysis (reference value: 25.10%); type: functional
# BT-549 [3] = test: Cell cycle arrest in human BT549 cells assessed as accumulation of cells at G1 phase after 24 hrs by propidium iodide staining-based flow cytometric analysis; type: functional
# BT-549 [4] = test: Cell cycle arrest in human BT549 cells assessed as accumulation of cells at G2 phase at 1 uM after 24 hrs by propidium iodide staining-based flow cytometric analysis (reference value: 18.96%); type: functional
# BT-549 [5] = test: Induction of apoptosis in human BT549 cells assessed as late apoptotic cells at 5 uM by Annexin V-FITC/propidium iodide staining-based flow cytometric analysis relative to control; type: functional
# BT-549 [6] = test: Cell cycle arrest in human BT549 cells assessed as accumulation of cells at G2 phase at 2.5 uM after 24 hrs by propidium iodide staining-based flow cytometric analysis (reference value: 18.96%); type: functional
# [7] = biological target: Phosphatidylinositol 4,5-bisphosphate 3-kinase catalytic subunit beta isoform (Homo sapiens, UniProt P42338); test: Inhibition of PI3K p110beta (unknown origin) using PIP2 as substrate by ELISA
# Chain of Phosphatidylinositol 4,5-bisphosphate 3-kinase catalytic subunit beta isoform (P42338 whole entry, canonical isoform): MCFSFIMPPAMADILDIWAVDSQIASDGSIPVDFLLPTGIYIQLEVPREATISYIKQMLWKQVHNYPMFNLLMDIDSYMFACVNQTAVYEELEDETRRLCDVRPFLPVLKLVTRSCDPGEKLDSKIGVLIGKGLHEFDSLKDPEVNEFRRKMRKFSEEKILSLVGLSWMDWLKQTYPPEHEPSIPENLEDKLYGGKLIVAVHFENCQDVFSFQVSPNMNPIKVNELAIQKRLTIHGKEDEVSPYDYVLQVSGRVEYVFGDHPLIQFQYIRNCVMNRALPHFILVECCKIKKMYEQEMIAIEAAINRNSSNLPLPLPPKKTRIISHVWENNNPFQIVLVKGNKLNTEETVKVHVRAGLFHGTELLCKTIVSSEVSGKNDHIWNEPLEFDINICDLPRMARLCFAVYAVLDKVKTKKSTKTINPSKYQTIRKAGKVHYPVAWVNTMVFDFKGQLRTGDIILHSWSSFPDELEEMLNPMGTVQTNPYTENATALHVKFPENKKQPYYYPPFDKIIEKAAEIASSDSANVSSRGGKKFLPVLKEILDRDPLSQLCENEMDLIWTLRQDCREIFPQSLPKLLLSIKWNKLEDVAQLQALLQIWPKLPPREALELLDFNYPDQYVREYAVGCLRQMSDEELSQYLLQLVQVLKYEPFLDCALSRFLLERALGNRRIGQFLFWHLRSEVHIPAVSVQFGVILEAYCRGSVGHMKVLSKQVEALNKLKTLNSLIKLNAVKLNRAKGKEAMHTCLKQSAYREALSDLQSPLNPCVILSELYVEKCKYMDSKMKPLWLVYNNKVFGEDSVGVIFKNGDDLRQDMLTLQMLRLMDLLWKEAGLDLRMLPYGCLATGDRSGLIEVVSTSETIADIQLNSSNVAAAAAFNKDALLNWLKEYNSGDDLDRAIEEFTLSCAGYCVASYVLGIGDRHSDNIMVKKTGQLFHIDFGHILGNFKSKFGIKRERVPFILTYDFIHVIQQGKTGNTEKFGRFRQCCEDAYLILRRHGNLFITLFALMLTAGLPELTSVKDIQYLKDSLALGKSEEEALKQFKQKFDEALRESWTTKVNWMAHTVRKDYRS
# BT-549 [8] = test: Cell cycle arrest in human BT549 cells assessed as accumulation of cells at G2 phase at 5 uM after 24 hrs by propidium iodide staining-based flow cytometric analysis (reference value: 18.96%); type: functional
# BT-549 [9] = test: Induction of apoptosis in human BT549 cells assessed as early apoptotic cells at 1 uM by Annexin V-FITC/propidium iodide staining-based flow cytometric analysis relative to control; type: functional
# HCT-116 = test: Cytotoxicity against human HCT116 cells after 72 hrs by SRB assay; type: functional, cell-based; settings: HCT-116, 72 h
# BT-549 [10] = test: Cell cycle arrest in human BT549 cells assessed as accumulation of cells at G1 phase at 1 uM after 24 hrs by propidium iodide staining-based flow cytometric analysis (reference value: 55.93%); type: functional
# BT-549 [11] = test: Induction of apoptosis in human BT549 cells assessed as early apoptotic cells at 2.5 uM by Annexin V-FITC/propidium iodide staining-based flow cytometric analysis relative to control; type: functional
# A549 = test: Cytotoxicity against human A549 cells after 72 hrs by SRB assay; type: functional, cell-based; settings: A549, 72 h
# [12] = biological target: Phosphatidylinositol 4,5-bisphosphate 3-kinase catalytic subunit alpha isoform (Homo sapiens, UniProt P42336); test: Inhibition of PI3K p110alpha (unknown origin) using PIP2 as substrate by ELISA
# Chain of Phosphatidylinositol 4,5-bisphosphate 3-kinase catalytic subunit alpha isoform (P42336 whole entry, the tested form may be a part, canonical isoform): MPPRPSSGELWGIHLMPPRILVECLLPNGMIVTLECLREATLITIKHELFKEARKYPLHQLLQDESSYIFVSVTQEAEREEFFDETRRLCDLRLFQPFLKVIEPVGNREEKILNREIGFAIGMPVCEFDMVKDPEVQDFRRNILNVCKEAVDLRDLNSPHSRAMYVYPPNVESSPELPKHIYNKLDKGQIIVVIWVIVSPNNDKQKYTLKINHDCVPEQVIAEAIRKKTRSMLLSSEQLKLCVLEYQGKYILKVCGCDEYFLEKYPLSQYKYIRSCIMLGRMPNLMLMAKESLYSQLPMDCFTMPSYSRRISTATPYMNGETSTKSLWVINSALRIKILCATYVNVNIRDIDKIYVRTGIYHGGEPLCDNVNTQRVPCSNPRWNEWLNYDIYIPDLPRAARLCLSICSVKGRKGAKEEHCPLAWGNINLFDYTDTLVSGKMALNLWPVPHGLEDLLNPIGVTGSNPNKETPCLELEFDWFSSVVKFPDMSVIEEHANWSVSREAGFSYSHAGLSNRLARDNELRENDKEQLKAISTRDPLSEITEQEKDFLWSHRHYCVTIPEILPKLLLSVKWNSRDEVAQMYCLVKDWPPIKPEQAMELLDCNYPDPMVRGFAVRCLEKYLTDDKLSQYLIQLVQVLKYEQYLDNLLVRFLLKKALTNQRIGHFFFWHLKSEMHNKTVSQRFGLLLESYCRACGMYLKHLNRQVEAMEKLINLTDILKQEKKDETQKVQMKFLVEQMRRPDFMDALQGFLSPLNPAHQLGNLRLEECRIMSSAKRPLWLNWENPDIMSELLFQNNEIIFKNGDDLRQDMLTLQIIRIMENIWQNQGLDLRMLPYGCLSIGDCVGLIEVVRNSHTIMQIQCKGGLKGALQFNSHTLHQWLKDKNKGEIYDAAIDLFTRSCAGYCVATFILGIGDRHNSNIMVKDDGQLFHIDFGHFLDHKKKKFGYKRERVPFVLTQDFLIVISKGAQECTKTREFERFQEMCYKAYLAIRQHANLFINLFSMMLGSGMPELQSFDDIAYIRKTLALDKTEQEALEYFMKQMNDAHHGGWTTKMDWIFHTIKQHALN
# BT-549 [13] = test: Induction of apoptosis in human BT549 cells assessed as nuclear fragmentation at 1 to 5 uM after 24 hrs by DAPI staining-based fluorescence microscopic analysis; type: functional, cell-based
# BT-549 [14] = test: Induction of apoptosis in human BT549 cells assessed as late apoptotic cells at 1 uM by Annexin V-FITC/propidium iodide staining-based flow cytometric analysis relative to control; type: functional
# [15] = biological target: T1, Phosphatidylinositol 4,5-bisphosphate 3-kinase catalytic subunit delta isoform (Homo sapiens, UniProt O00329); test: Inhibition of PI3K p110delta (unknown origin) using PIP2 as substrate by ELISA
# T1 sequence (O00329 whole entry): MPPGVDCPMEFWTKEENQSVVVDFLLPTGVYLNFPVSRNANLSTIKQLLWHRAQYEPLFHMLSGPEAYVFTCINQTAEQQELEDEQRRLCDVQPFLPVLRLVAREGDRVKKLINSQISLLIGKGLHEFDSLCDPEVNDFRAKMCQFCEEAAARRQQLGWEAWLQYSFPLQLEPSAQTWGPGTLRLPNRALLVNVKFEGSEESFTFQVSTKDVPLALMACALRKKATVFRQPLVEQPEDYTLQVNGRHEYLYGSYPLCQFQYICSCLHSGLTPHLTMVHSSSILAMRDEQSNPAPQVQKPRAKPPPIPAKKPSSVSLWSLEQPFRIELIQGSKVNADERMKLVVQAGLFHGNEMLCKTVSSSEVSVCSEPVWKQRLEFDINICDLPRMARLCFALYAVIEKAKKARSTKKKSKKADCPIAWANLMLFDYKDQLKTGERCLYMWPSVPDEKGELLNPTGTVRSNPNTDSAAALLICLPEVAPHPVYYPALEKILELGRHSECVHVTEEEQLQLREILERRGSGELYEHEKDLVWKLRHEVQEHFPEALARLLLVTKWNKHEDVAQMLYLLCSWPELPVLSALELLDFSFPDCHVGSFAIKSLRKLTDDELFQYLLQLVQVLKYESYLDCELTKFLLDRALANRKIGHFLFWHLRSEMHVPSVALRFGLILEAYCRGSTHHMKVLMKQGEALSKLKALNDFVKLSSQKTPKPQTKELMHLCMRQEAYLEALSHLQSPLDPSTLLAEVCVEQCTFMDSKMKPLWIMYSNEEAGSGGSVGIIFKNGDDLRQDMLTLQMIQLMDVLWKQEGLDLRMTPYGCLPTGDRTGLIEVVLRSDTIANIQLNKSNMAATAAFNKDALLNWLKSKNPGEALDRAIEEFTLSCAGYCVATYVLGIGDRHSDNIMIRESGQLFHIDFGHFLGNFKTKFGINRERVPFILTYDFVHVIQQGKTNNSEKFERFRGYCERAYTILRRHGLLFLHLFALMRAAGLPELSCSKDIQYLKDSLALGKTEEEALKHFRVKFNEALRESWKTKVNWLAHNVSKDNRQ
# SNU-638 = test: Cytotoxicity against human SNU638 cells after 72 hrs by SRB assay; type: functional, cell-based; settings: SNU-638, 72 h
# BT-549 [16] = test: Cell cycle arrest in human BT549 cells assessed as accumulation of cells at S phase at 1 uM after 24 hrs by propidium iodide staining-based flow cytometric analysis (reference value: 25.10%); type: functional
# Homo sapiens = species on record: Homo sapiens; test: Inhibition of PI3K in human BT549 cells assessed as decrease in Akt phosphorylation at Ser473 by Western blot analysis; type: cell-based
# BT-549 [17] = test: Induction of apoptosis in human BT549 cells assessed as chromatin condensation at 1 to 5 uM after 24 hrs by DAPI staining-based fluorescence microscopic analysis; type: functional, cell-based
# BT-549 [18] = test: Inhibition of colony formation in human BT549 cells assessed as colony formation rate at 5 uM after 2 weeks by crystal violet staining-based assay relative to control; type: functional; design: scale not given: the % may be the effect or the level left
# BT-549 [19] = test: Induction of apoptosis in human BT549 cells assessed as late apoptotic cells at 2.5 uM by Annexin V-FITC/propidium iodide staining-based flow cytometric analysis relative to control; type: functional
# [20] = biological target: Phosphatidylinositol 4,5-bisphosphate 3-kinase catalytic subunit gamma isoform (Homo sapiens, UniProt P48736); test: Inhibition of PI3K p110gamma (unknown origin) using PIP2 as substrate by ELISA
# Chain of Phosphatidylinositol 4,5-bisphosphate 3-kinase catalytic subunit gamma isoform (P48736 whole entry, canonical isoform): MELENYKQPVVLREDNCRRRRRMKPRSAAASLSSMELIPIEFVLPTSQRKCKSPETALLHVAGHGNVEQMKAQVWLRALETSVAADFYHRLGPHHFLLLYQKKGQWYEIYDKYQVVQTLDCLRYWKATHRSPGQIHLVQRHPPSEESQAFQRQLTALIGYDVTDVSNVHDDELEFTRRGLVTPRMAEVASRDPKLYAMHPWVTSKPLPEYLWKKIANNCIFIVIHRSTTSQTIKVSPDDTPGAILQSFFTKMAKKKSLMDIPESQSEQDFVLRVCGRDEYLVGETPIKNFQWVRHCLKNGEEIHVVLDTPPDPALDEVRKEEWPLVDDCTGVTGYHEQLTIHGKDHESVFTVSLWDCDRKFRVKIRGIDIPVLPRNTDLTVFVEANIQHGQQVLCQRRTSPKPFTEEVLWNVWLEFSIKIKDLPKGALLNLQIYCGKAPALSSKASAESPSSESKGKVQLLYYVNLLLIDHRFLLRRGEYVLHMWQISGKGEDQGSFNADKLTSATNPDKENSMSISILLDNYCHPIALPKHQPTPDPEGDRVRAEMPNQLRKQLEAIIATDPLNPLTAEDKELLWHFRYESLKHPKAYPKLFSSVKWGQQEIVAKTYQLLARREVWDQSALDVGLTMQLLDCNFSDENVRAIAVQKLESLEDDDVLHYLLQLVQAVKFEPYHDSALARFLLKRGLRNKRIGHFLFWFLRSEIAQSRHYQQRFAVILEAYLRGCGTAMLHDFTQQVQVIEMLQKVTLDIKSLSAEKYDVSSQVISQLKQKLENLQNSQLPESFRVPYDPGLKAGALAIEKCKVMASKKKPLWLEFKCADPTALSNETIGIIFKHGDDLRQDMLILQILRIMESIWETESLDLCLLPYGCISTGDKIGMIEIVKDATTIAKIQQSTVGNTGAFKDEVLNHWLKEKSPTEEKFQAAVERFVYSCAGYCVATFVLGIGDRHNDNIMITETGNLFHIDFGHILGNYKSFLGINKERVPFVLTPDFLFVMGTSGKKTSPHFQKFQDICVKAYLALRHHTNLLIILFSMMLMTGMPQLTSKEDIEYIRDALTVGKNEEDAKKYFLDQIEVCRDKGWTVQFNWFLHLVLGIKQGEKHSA
# BT-549 [21] = test: Inhibition of colony formation in human BT549 cells assessed as colony formation rate at 2.5 uM after 2 weeks by crystal violet staining-based assay relative to control; type: functional; design: scale not given: the % may be the effect or the level left
# BT-549 [22] = test: Induction of apoptosis in human BT549 cells assessed as early apoptotic cells at 5 uM by Annexin V-FITC/propidium iodide staining-based flow cytometric analysis relative to control; type: functional
# BT-549 [23] = test: Cell cycle arrest in human BT549 cells assessed as accumulation of cells at G1 phase at 5 uM after 24 hrs by propidium iodide staining-based flow cytometric analysis (reference value: 55.93%); type: functional
# SK-HEP1 = test: Cytotoxicity against human SKHEP1 cells after 72 hrs by SRB assay; type: functional, cell-based; settings: SK-HEP1, 72 h
# BT-549 [24] = test: Inhibition of colony formation in human BT549 cells after 2 weeks by crystal violet staining-based assay; type: functional, cell-based
# BT-549 [25] = test: Cytotoxicity against human BT549 cells after 72 hrs by SRB assay; type: functional, cell-based; settings: BT-549, 72 h
# BT-549 [26] = test: Cell cycle arrest in human BT549 cells assessed as accumulation of cells at S phase at 2.5 uM after 24 hrs by propidium iodide staining-based flow cytometric analysis (reference value: 25.10%); type: functional
# [27] = biological target: Epidermal growth factor receptor (Homo sapiens, UniProt P00533); test: Inhibition of EGFR (unknown origin) using FAM-labeled peptide as substrate preincubated for 10 mins followed by substrate addition and measured after 1 hr by mobility shift assay
# Chain of Epidermal growth factor receptor (P00533 whole entry): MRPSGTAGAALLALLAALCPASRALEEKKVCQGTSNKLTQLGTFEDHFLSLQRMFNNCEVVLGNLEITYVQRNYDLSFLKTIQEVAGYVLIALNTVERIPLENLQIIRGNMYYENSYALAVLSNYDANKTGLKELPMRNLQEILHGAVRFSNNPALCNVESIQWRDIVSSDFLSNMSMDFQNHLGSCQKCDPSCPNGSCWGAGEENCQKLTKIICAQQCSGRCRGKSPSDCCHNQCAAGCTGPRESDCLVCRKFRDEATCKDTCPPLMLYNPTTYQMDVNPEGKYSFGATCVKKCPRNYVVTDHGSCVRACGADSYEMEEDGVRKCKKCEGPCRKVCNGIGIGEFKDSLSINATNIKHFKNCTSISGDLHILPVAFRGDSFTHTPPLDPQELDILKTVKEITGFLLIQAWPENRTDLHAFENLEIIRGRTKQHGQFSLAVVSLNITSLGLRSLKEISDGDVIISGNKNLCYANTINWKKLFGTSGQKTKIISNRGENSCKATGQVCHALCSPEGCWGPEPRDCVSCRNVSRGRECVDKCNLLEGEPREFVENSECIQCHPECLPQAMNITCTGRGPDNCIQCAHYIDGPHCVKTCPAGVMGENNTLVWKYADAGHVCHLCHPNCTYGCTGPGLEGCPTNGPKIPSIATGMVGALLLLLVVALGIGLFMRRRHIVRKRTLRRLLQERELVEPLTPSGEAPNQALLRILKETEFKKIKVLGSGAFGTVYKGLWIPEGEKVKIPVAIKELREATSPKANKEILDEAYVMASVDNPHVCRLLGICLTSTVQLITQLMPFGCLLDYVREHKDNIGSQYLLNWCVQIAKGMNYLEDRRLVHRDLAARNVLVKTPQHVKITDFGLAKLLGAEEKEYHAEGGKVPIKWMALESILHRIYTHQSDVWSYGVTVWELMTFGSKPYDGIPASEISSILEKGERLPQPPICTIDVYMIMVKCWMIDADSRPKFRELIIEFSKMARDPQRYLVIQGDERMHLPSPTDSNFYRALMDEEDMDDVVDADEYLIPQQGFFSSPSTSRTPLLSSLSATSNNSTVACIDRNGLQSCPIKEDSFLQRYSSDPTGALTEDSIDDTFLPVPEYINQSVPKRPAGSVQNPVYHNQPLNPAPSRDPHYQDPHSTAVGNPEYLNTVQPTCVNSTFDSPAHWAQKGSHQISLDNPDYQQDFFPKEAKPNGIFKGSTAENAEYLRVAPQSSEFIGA
structure (smiles),measurement,setting,value
CCS(=O)(=O)Nc1cc(-c2ccc3ncnc(Nc4ccc(F)c(Cl)c4)c3c2)cnc1OC,Activity,BT-549 [1],75.36%
same,IC50,MCF7,5.59 µM
same,Activity,BT-549 [2],0.92%
same,Activity,BT-549 [3],Dose-dependent effect
same,Activity,BT-549 [4],24.16%
same,Activity,BT-549 [5],2.27%
same,Activity,BT-549 [6],17.77%
same,IC50,[7],9.41 µM
same,Activity,BT-549 [8],18.37%
same,Activity,BT-549 [9],30.52%
same,IC50,HCT-116,5.6 µM
same,Activity,BT-549 [10],69.31%
same,Activity,BT-549 [11],56.69%
same,IC50,A549,8.23 µM
same,IC50,[12],0.317 µM
same,Activity,BT-549 [13],Active
same,Activity,BT-549 [14],1.79%
same,IC50,[15],8.67 µM
same,IC50,SNU-638,4.1 µM
same,Activity,BT-549 [16],6.52%
same,inhibition,Homo sapiens,Dose-dependent effect
same,Activity,BT-549 [17],Active
same,Activity,BT-549 [18],25.7%
same,Activity,BT-549 [19],2.05%
same,IC50,[20],3.56 µM
same,Activity,BT-549 [21],55.6%
same,Activity,BT-549 [22],54.71%
same,Activity,BT-549 [23],80.7%
same,IC50,SK-HEP1,6.1 µM
same,inhibition,BT-549 [24],Dose-dependent effect
same,IC50,BT-549 [25],1.02 µM
same,Activity,BT-549 [26],6.86%
CCS(=O)(=O)Nc1cc(-c2ccc3ncnc(Nc4ccc(F)c(C(=O)OC)c4)c3c2)cnc1OC,IC50,MCF7,1.15 µM
same,IC50,HCT-116,2.36 µM
same,IC50,A549,3.42 µM
same,IC50,SNU-638,2.54 µM
same,IC50,SK-HEP1,5.18 µM
same,IC50,BT-549 [25],2.74 µM
CCCCS(=O)(=O)Nc1cc(-c2ccc3ncnc(Nc4ccc(F)c(Cl)c4)c3c2)cnc1OC,IC50,MCF7,65.8 µM
same,IC50,HCT-116,9.99 µM
same,IC50,A549,77.1 µM
same,IC50,SNU-638,5.35 µM
same,IC50,SK-HEP1,53.8 µM
same,IC50,BT-549 [25],56.8 µM
CCS(=O)(=O)Nc1cc(-c2ccc3ncnc(Nc4cccc(C(=O)OC)c4)c3c2)cnc1OC,IC50,MCF7,10.1 µM
same,IC50,[7],4.94 µM
same,IC50,HCT-116,0.4 µM
same,IC50,A549,1.1 µM
same,IC50,[12],0.165 µM
same,IC50,[15],4.36 µM
same,IC50,SNU-638,1.12 µM
same,IC50,[27],0.409 µM
same,IC50,[20],1.78 µM
same,IC50,SK-HEP1,2.4 µM
same,IC50,BT-549 [25],1.08 µM
CCS(=O)(=O)Nc1cc(-c2ccc3ncnc(Nc4ccc(F)nc4)c3c2)cnc1OC,IC50,MCF7,5.39 µM
same,IC50,HCT-116,7.62 µM
same,IC50,A549,6.72 µM
same,IC50,SNU-638,6.52 µM
same,IC50,SK-HEP1,5.24 µM
same,IC50,BT-549 [25],4.78 µM
CCS(=O)(=O)Nc1cc(-c2ccc3ncnc(Nc4ccc(F)cc4)c3c2)cnc1OC,IC50,MCF7,6.51 µM
same,IC50,HCT-116,3.16 µM
same,IC50,A549,7.62 µM
same,IC50,SNU-638,2.4 µM
same,IC50,SK-HEP1,1.47 µM
same,IC50,BT-549 [25],3.12 µM
CCS(=O)(=O)Nc1cc(-c2ccc3ncnc(Nc4ccc(OC)nc4)c3c2)cnc1OC,IC50,MCF7,3.77 µM
same,IC50,HCT-116,6.91 µM
same,IC50,A549,5.56 µM
same,IC50,SNU-638,4.28 µM
same,IC50,SK-HEP1,3.44 µM
same,IC50,BT-549 [25],3.49 µM

# Reference: ChEMBL document CHEMBL4196007, “Design, synthesis and biological evaluation of novel 4-aminoquinazolines as dual target inhibitors of EGFR-PI3Kα” (Eur J Med Chem, 2018)
